Data reported in patent US20170291890A1 (Epizyme, Inc., priority 2014, published 2017).

Target: T1, KDM5A (Homo sapiens, UniProt P29375)
T1 construct: C-terminal FLAG-tagged KDM5A^1-1090 was purchased from BPS Biosciences; FLAG (C); purchased BPS Biosciences
T1 sequence (P29375 1-1090): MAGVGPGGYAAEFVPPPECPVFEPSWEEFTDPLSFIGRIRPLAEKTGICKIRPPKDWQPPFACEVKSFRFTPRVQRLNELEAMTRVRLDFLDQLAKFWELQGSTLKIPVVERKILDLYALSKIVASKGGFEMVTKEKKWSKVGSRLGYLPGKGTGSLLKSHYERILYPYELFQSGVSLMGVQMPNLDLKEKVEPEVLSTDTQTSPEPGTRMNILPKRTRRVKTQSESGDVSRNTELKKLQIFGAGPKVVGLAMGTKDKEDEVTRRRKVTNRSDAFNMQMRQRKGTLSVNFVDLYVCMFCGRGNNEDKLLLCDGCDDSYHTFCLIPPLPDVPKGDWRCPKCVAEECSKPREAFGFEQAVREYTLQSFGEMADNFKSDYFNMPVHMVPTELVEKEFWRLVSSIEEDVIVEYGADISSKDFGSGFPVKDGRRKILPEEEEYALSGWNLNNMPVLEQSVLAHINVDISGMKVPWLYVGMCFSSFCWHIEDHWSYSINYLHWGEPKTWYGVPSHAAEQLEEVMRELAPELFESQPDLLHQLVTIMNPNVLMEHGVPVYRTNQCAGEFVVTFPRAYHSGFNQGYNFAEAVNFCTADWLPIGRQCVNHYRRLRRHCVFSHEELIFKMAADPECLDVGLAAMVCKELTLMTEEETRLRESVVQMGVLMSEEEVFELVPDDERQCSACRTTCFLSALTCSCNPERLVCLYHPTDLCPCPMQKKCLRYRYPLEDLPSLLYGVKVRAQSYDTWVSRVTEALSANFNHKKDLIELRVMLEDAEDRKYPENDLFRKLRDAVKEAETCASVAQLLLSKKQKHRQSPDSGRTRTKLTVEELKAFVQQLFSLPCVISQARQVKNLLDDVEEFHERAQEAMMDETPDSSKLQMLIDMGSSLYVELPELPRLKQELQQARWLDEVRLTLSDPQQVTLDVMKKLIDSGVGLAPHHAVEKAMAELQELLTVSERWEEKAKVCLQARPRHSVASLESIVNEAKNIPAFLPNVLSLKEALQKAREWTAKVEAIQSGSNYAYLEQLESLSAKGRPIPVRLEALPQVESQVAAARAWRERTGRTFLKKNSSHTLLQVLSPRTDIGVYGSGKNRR
Test: KDM5A Assay (SAMDI mass spectrometry demethylase assay)
Format: biochemical
Settings: C-terminal FLAG-tagged KDM5A 1-1090; class symbols; read-out: 5A IC50
In short: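 FLAG-tagged KDM5A 1-1090 (20 nM) preincubated 30 min with compound in pH 8.0 HEPES buffer with ascorbate, Fe(II), TCEP, then reacted 150 min at 25 °C with H3K4me3 peptide (250 nM) and 2-oxoglutarate (15 μM). Formic acid-quenched; SAMDI-MS substrate/product AUC conversion; IC50 from dose-response.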

Cc1c(-c2ccccc2)nn(C)c1Nc1cnccc1C(=O)O [Compound 53, 3-((1,4-dimethyl-3-phenyl-1H-pyrazol-5-yl)amino)isonicotinic acid] was tested. Which IC50 did it give?
The IC50 was 1000 to 10000 nM.

With O=C(O)c1ccncc1Nc1c(-c2ccccc2)cnn1-c1ccccc1 [Compound 43, 3-((1,4-Diphenyl-1H-pyrazol-5-yl)amino)isonicotinic acid] as the compound, how does the IC50 read?
Its IC50 is 10000 to 100000 nM.

For Cc1c(Nc2cnccc2C(=O)O)cnn1C1CCCN(C)CC1 (centres unmarked) [Compound 112, 3-((5-methyl-1-(1-methylazepan-4-yl)-1H-pyrazol-4-yl)amino)isonicotinic acid], which IC50 is on record?
Its IC50 is 100 to 1000 nM.

For Cn1cc(-c2ccccc2)c(Nc2cnccc2C(=O)O)n1 [Compound 3], which IC50 is on record?
The IC50 was 1000 to 10000 nM.

Which IC50 does the source give for O=C(O)c1ccncc1Nc1nn(CCN2CCC(F)(F)CC2)cc1C1CCCCC1 [Compound 57, 3-((4-cyclohexyl-1-(2-(4,4-difluoropiperidin-1-yl)ethyl)-1H-pyrazol-3-yl)amino)isonicotinic acid] here?
Its IC50 is 100 to 1000 nM.

With Cn1nc(-c2ccc(Cl)cc2)cc1Nc1cnccc1C(=O)O [Compound 24, 3-((3-(4-Chlorophenyl)-1-methyl-1H-pyrazol-5-yl)amino) isonicotinic acid] as the compound, how does the IC50 read?
Its IC50 is 1 to 100 nM.

N[C@H]1CC[C@H](n2nc(-c3ccccc3)cc2Nc2cnccc2C(=O)O)CC1 [Compound 38, 3-((1-((trans)-4-aminocyclohexyl)-3-phenyl-1H-pyrazol-5-yl)amino)isonicotinic acid] was tested. Which IC50 did it give?
The IC50 was 1000 to 10000 nM.

Cn1ncc(-c2ccccc2F)c1Nc1cnccc1C(=O)O [Compound 12, 3-((4-(2-fluorophenyl)-1-methyl-1H-pyrazol-5-yl)amino) isonicotinic acid] was tested. Which IC50 did it give?
The IC50 was 100 to 1000 nM.

With Cc1c(Nc2cnccc2C(=O)O)cnn1C1CCN(C(=O)c2ccccc2)CC1 [Compound 98, 3-(1-(1-benzoylpiperidin-4-yl)-5-methyl-1H-pyrazol-4-ylamino) isonicotinic acid] as the compound, how does the IC50 read?
The IC50 was 1000 to 10000 nM.

For O=C(O)c1ccncc1Nc1c(-c2ccccc2)cnn1CCN1CCC(F)(F)CC1 [Compound 15, 3-((1-(2-(4,4-difluoropiperidin-1-yl)ethyl)-4-phenyl-1H-pyrazol-5-yl)amino)isonicotinic acid], which IC50 is on record?
Its IC50 is 1000 to 10000 nM.

For O=C(O)c1ccncc1Nc1nn(-c2ccccc2)cc1-c1ccccc1 [Compound 42, 3-((1,4-diphenyl-1H-pyrazol-3-yl)amino)isonicotinic acid], which IC50 is on record?
Its IC50 is 100 to 1000 nM.

With CN1CCN(CCn2ncc(-c3ccccc3)c2Nc2cnccc2C(=O)O)CC1 [Compound 35, 3-((1-(2-(4-methylpiperazin-1-yl)ethyl)-4-phenyl-1H-pyrazol-5-yl)amino)isonicotinic acid] as the compound, how does the IC50 read?
Its IC50 is 1 to 100 nM.

With CNC(=O)c1ccc(-n2ncc(Nc3cnccc3C(=O)O)c2C)cc1 [Compound 58, 3-((5-methyl-1-(4-(methylcarbamoyl)phenyl)-1H-pyrazol-4-yl)amino) isonicotinic acid] as the compound, how does the IC50 read?
Its IC50 is 1000 to 10000 nM.

With O=C(O)c1ccncc1Nc1cn(-c2ccccc2)nc1-c1ccccc1 [Compound 41, 3-((1,3-Diphenyl-1H-pyrazol-4-yl)amino)isonicotinic acid] as the compound, how does the IC50 read?
The IC50 was 1000 to 10000 nM.

How did the IC50 turn out when O=C(O)c1ccncc1Nc1cc(-c2ccccc2)nn1-c1ccncc1 [Compound 56, 3-((3-phenyl-1-(pyridin-4-yl)-1H-pyrazol-5-yl)amino) isonicotinic acid] was run?
The IC50 was 1000 to 10000 nM.

Cc1cn(-c2ccccc2C#N)nc1Nc1cnccc1C(=O)O [Compound 71, 3-((1-(2-cyanophenyl)-4-methyl-1H-pyrazol-3-yl)amino) isonicotinic acid] was tested. Which IC50 did it give?
The IC50 was 1 to 100 nM.

With O=C(O)c1ccncc1Nc1cc(-c2ccccc2)nn1C1CCOCC1 [Compound 23, 3-((3-Phenyl-1-(tetrahydro-2H-pyran-4-yl)-1H-pyrazol-5-yl)amino)isonicotinic acid] as the compound, how does the IC50 read?
Its IC50 is 1000 to 10000 nM.

With Cc1cc(Nc2cnccc2C(=O)O)n(C2CCOCC2)n1 [Compound 78, 3-((3-methyl-1-(tetrahydro-2H-pyran-4-yl)-1H-pyrazol-5-yl)amino) isonicotinic acid] as the compound, how does the IC50 read?
The IC50 was 1000 to 10000 nM.

Which IC50 does the source give for O=C(O)c1ccncc1Nc1c(-c2ccc(F)cc2)cnn1CCN1CCC(F)(F)CC1 [Compound 46, 3-((1-(2-(4,4-difluoropiperidin-1-yl)ethyl)-4-(4-fluorophenyl)-1H-pyrazol-5-yl)amino) isonicotinic acid] here?
Its IC50 is 1000 to 10000 nM.

For Cc1c(Nc2cnccc2C(=O)O)cnn1-c1ccccc1 [Compound 20, 3-((5-methyl-1-phenyl-1H-pyrazol-4-yl)amino)isonicotinic acid], which IC50 is on record?
Its IC50 is 1000 to 10000 nM.

With Cc1c(-c2ccccc2)nn(CCN2CCC(F)(F)CC2)c1Nc1cnccc1C(=O)O [Compound 66, 3-((1-(2-(4,4-difluoropiperidin-1-yl)ethyl)-4-methyl-3-phenyl-1H-pyrazol-5-yl)amino)isonicotinic acid] as the compound, how does the IC50 read?
The IC50 was 10000 to 100000 nM.

For Cc1nn(-c2ccc(O)cc2)c(C)c1Nc1cnccc1C(=O)O [Compound 76, 3-((1-(4-hydroxyphenyl)-3,5-dimethyl-1H-pyrazol-4-yl)amino)isonicotinic acid], which IC50 is on record?
Its IC50 is 10000 to 100000 nM.

Which IC50 does the source give for Cc1cc(Nc2cnccc2C(=O)O)n(-c2ccccc2)n1 [Compound 61, 3-((3-methyl-1-phenyl-1H-pyrazol-5-yl)amino) isonicotinic acid] here?
Its IC50 is 1000 to 10000 nM.

For Cc1nn(C2CCCNCC2)cc1Nc1cnccc1C(=O)O (single isomer, unassigned) [Compound 116], which IC50 is on record?
The IC50 was 100 to 1000 nM.

How did the IC50 turn out when CNC(=O)c1cccc(-n2ncc(Nc3cnccc3C(=O)O)c2C)c1 [Compound 59, 3-((5-methyl-1-(3-(methylcarbamoyl)phenyl)-1H-pyrazol-4-yl)amino) isonicotinic acid] was run?
Its IC50 is 1000 to 10000 nM.

How did the IC50 turn out when O=C(O)c1ccncc1Nc1cc(-c2ccccc2)nn1[C@H]1CC[C@H](O)CC1 [Compound 39, 3-((1-((trans)-4-hydroxycyclohexyl)-3-phenyl-1H-pyrazol-5-yl)amino)isonicotinic acid] was run?
Its IC50 is 10000 to 100000 nM.
